# pIC50: −log10 of the molar value.
# Test system: RIG-I-MAVS pathway
# Assay: Specificity assay: ISRE reporter THP1 cells infected with Sendai Virus (SeV)
# Type: cell-based
# Conditions: Homo sapiens, THP-1; ISRE-Gaussia luciferase reporter THP1 cells infected with Sendai Virus (SeV) at 50 Unit/mL
# Description: (§1) A reporter THP1 cell line harboring a gene encoding Gaussia Luciferase under the control of 5 tandem repeats of interferon-stimulated response elements (ISRE) was used to test inhibition of cGAS activity by synthetic compounds in human cells. These cells were plated on 96-well plates at 0.3×10^6/well and incubated with various concentrations of compounds or DMSO for 5 min, followed by transfection of 2 μg/mL of ISD (Interferon Stimulatory DNA, a 45 bp DNA oligo) or mock transfected using lipofectamine 2000 (Life Technology) method, according to manufacturer's instructions. 16 hours later, 15 μL of the media from each well is transferred to a new plate, 50 μL of solution containing 50 mM Hepes-NaOH, 50 mM NaCl, 10 mM EDTA, 1 μM of coeleanterazine was added to each well and luminescence was measured immediately. Fold increase in luminescence compared to mock transfection is plotted against concentrations of each compound, and IC50 is calculated using Graphpad. To evaluate the specificity of a compound, the same procedure was performed except that cells were transfected with 2 μg/mL poly(I:C) or infected with Sendai Virus (SeV) at 50 Unit/mL, which are known to activate the RIG-I-MAVS pathway. A specific inhibitory compound should inhibit interferon induction by DNA but have minimal effect on poly(I:C) or Sendai virus induced interferon reporter gene expression.
row,SMILES,pIC50
1,CC(Oc1cc(/C=C2\SC(=O)N(C)C2=O)c(Br)c(F)c1O)C(O)c1cnc(N)nc1 (centres unmarked) [ExB4],≤ 5.00
2,CN1C(=O)S/C(=C\c2cc(OCc3cnc(N4CCNCC4)nc3)c(O)cc2Br)C1=O [Ex165],≤ 5.00
3,CN1C(=O)S/C(=C\c2cc3c(-c4cnc(N)nc4)c[nH]c3c(F)c2Br)C1=O [ExB40],≤ 5.00
4,CN1C(=O)S/C(=C\c2cc(OCc3cnc4ccccc4c3)c(O)cc2Br)C1=O [Ex177],≤ 5.00
5,Nc1ncncc1COc1cc(/C=C2\Sc3ncccc3C2=O)c(Br)cc1O [Ex73],≤ 5.00
6,CC(Oc1cc(/C=C2\SC(=O)N(C)C2=O)c(Br)cc1O)c1cncnc1N (centres unmarked) [Ex80],≤ 5.00
7,COc1cc(/C=C2\Sc3ncccc3C2=O)c(Br)c(F)c1O [Ex75],≤ 5.00
8,CN1C(=O)S/C(=C\c2cc(OCc3cnc(NCc4cccnc4)nc3)c(O)cc2Br)C1=O [Ex156],≤ 5.00
9,COc1cc(/C=C2\SC(=O)N(C)C2=O)c(I)cc1O [Ex65],≤ 5.00
10,COc1cc(/C=C2\SC(=O)N(C)C2=O)c(Br)c(F)c1O [Ex63],≤ 5.00
11,CC(Oc1cc(/C=C2\Sc3ncccc3C2=O)c(Br)cc1O)c1cnc(N)nc1 (centres unmarked) [Ex122],≤ 5.00
12,CN1C(=O)S/C(=C\c2cc(O/C=C/c3cnc(N)nc3)c(O)c(F)c2Br)C1=O [ExB2],≤ 5.00
13,CN1C(=O)S/C(=C\c2cc(OCc3cnc(N)nc3)c(O)cc2Br)C1=O [Ex147],≤ 5.00
14,CN1C(=O)S/C(=C\c2cc(OC(F)(F)F)c(O)cc2Br)C1=O [Ex57],5.00 to 5.60
15,CC(Oc1cc(/C=C2\SC(=O)N(C)C2=O)c(Br)c(F)c1O)c1cnc(N)nc1C(F)(F)F (centres unmarked) [ExA7],≤ 5.00
16,COCCNc1ncc(COc2cc(/C=C3\SC(=O)N(C)C3=O)c(Br)c(F)c2O)cn1 [Ex153],≤ 5.00
17,O=C1/C(=C/c2cc(OC(F)(F)F)c(O)cc2Br)Sc2ncccc21 [Ex70],≤ 5.00
18,CN1C(=O)S/C(=C\c2cc(OCc3cnc(NCc4ccccn4)nc3)c(O)cc2Br)C1=O [Ex155],≤ 5.00
19,CNc1ncc(COc2cc(/C=C3\Sc4ncccc4C3=O)c(Br)cc2O)cn1 [Ex195],≤ 5.00
20,O=C1/C(=C/c2cc(OCc3cnc(NCc4cccnc4)nc3)c(O)c(F)c2Br)Sc2ncccc21 [ExA3],≤ 5.00
21,CN1C(=O)S/C(=C\c2cc(OCc3ncc(N)cn3)c(O)cc2Br)C1=O [Ex139],≤ 5.00
22,O=C1/C(=C/c2cc(OCc3cnc(NCc4ccncc4)nc3)c(O)cc2Br)Sc2ncccc21 [Ex200],≤ 5.00
23,CN1C(=O)S/C(=C\c2cc(OCc3cn(-c4ccncc4)nn3)c(O)cc2Br)C1=O [Ex233],≤ 5.00
24,C[S+]([O-])c1ncc(COc2cc(/C=C3\Sc4ncccc4C3=O)c(Br)c(F)c2O)cn1 (centres unmarked) [ExA15],≤ 5.00

# Test system: cGAS activity in THP1 cells
# Assay: Cellular assay: ISRE-Gaussia luciferase reporter THP1 cells transfected with ISD (Interferon Stimulatory DNA)
# Type: cell-based
# Conditions: Homo sapiens, THP-1; ISRE-Gaussia luciferase reporter THP1 cells transfected with 2 μg/mL ISD, 16 hours; read-out: THP1-ISD (Inhibition of cGAS activity in THP1 cells, IC50)
# Description: as §1
row,SMILES,pIC50
1,CC(Oc1cc(/C=C2\SC(=O)N(C)C2=O)c(Br)c(F)c1O)C(O)c1cnc(N)nc1 (centres unmarked) [ExB4],≤ 5.00
2,CN1C(=O)S/C(=C\c2cc(OCc3cnc(N4CCNCC4)nc3)c(O)cc2Br)C1=O [Ex165],5.00 to 5.60
3,CN1C(=O)S/C(=C\c2cc3c(-c4cnc(N)nc4)c[nH]c3c(F)c2Br)C1=O [ExB40],5.00 to 5.60
4,CN1C(=O)S/C(=C\c2cc(OCc3cnc4ccccc4c3)c(O)cc2Br)C1=O [Ex177],5.00 to 5.60
5,Nc1ncncc1COc1cc(/C=C2\Sc3ncccc3C2=O)c(Br)cc1O [Ex73],5.00 to 5.60
6,CC(Oc1cc(/C=C2\SC(=O)N(C)C2=O)c(Br)cc1O)c1cncnc1N (centres unmarked) [Ex80],5.00 to 5.60
7,COc1cc(/C=C2\Sc3ncccc3C2=O)c(Br)c(F)c1O [Ex75],5.00 to 5.60
8,CN1C(=O)S/C(=C\c2cc(OCc3cnc(NCc4cccnc4)nc3)c(O)cc2Br)C1=O [Ex156],5.00 to 5.60
9,COc1cc(/C=C2\SC(=O)N(C)C2=O)c(I)cc1O [Ex65],5.00 to 5.60
10,COc1cc(/C=C2\SC(=O)N(C)C2=O)c(Br)c(F)c1O [Ex63],5.00 to 5.60
11,CC(Oc1cc(/C=C2\Sc3ncccc3C2=O)c(Br)cc1O)c1cnc(N)nc1 (centres unmarked) [Ex122],≥ 5.60
12,CN1C(=O)S/C(=C\c2cc(O/C=C/c3cnc(N)nc3)c(O)c(F)c2Br)C1=O [ExB2],≥ 5.60
13,CN1C(=O)S/C(=C\c2cc(OCc3cnc(N)nc3)c(O)cc2Br)C1=O [Ex147],≥ 5.60
14,CN1C(=O)S/C(=C\c2cc(OC(F)(F)F)c(O)cc2Br)C1=O [Ex57],≥ 5.60
15,CC(Oc1cc(/C=C2\SC(=O)N(C)C2=O)c(Br)c(F)c1O)c1cnc(N)nc1C(F)(F)F (centres unmarked) [ExA7],5.00 to 5.60
16,COCCNc1ncc(COc2cc(/C=C3\SC(=O)N(C)C3=O)c(Br)c(F)c2O)cn1 [Ex153],5.00 to 5.60
17,O=C1/C(=C/c2cc(OC(F)(F)F)c(O)cc2Br)Sc2ncccc21 [Ex70],5.00 to 5.60
18,CN1C(=O)S/C(=C\c2cc(OCc3cnc(NCc4ccccn4)nc3)c(O)cc2Br)C1=O [Ex155],5.00 to 5.60
19,CNc1ncc(COc2cc(/C=C3\Sc4ncccc4C3=O)c(Br)cc2O)cn1 [Ex195],5.00 to 5.60
20,O=C1/C(=C/c2cc(OCc3cnc(NCc4cccnc4)nc3)c(O)c(F)c2Br)Sc2ncccc21 [ExA3],5.00 to 5.60
21,CN1C(=O)S/C(=C\c2cc(OCc3ncc(N)cn3)c(O)cc2Br)C1=O [Ex139],5.00 to 5.60
22,O=C1/C(=C/c2cc(OCc3cnc(NCc4ccncc4)nc3)c(O)cc2Br)Sc2ncccc21 [Ex200],≥ 5.60
23,CN1C(=O)S/C(=C\c2cc(OCc3cn(-c4ccncc4)nn3)c(O)cc2Br)C1=O [Ex233],5.00 to 5.60
24,C[S+]([O-])c1ncc(COc2cc(/C=C3\Sc4ncccc4C3=O)c(Br)c(F)c2O)cn1 (centres unmarked) [ExA15],5.00 to 5.60
25,COc1cc(/C=C2\SC(=O)N(C)C2=O)c(Br)cc1NS(=O)(=O)c1ccccn1 [Ex21],5.00 to 5.60

# Target: T1, recombinant cGAS (aa147-522) (Homo sapiens, UniProt Q8N884)
# T1 construct: recombinant cGAS (aa147-522); His6-SUMO (N, cleaved yes); made in house; host or cells: E. coli BL21/pLys
# T1 sequence (Q8N884 147-522): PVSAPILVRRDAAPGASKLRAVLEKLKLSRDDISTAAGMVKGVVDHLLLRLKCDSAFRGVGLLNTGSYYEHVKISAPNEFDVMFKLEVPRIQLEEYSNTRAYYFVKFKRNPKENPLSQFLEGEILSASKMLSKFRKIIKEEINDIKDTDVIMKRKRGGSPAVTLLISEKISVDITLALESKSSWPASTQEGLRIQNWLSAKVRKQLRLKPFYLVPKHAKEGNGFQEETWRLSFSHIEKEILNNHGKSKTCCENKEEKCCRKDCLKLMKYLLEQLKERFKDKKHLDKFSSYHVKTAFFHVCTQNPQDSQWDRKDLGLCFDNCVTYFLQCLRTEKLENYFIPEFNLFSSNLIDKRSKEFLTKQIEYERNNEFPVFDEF
# Assay: In vitro assay for inhibition of cGAS activity (ATP consumption, Kinase Glo)
# Type: biochemical
# Conditions: 37° C. 20 minutes, read-out: Activity (Inhibition of cGAS enzyme activity in vitro, IC50)
# Outline: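 Human cGAS (aa147-522) at 1.5 ng/μL incubated with serially diluted compound at 37° C for 20 min; remaining ATP read by Kinase Glo luminescence. IC50 from percent ATP consumption plotted against log compound concentration.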
row,SMILES,pIC50
1,CC(Oc1cc(/C=C2\SC(=O)N(C)C2=O)c(Br)c(F)c1O)C(O)c1cnc(N)nc1 (centres unmarked) [ExB4],≥ 6.30
2,CN1C(=O)S/C(=C\c2cc(OCc3cnc(N4CCNCC4)nc3)c(O)cc2Br)C1=O [Ex165],≥ 6.30
3,CN1C(=O)S/C(=C\c2cc3c(-c4cnc(N)nc4)c[nH]c3c(F)c2Br)C1=O [ExB40],≥ 6.30
4,CN1C(=O)S/C(=C\c2cc(OCc3cnc4ccccc4c3)c(O)cc2Br)C1=O [Ex177],5.00 to 6.30
5,Nc1ncncc1COc1cc(/C=C2\Sc3ncccc3C2=O)c(Br)cc1O [Ex73],≥ 6.30
6,CC(Oc1cc(/C=C2\SC(=O)N(C)C2=O)c(Br)cc1O)c1cncnc1N (centres unmarked) [Ex80],≥ 6.30
7,COc1cc(/C=C2\Sc3ncccc3C2=O)c(Br)c(F)c1O [Ex75],≥ 6.30
8,CN1C(=O)S/C(=C\c2cc(OCc3cnc(NCc4cccnc4)nc3)c(O)cc2Br)C1=O [Ex156],≥ 6.30
9,COc1cc(/C=C2\SC(=O)N(C)C2=O)c(I)cc1O [Ex65],≥ 6.30
10,COc1cc(/C=C2\SC(=O)N(C)C2=O)c(Br)c(F)c1O [Ex63],≥ 6.30
11,CC(Oc1cc(/C=C2\Sc3ncccc3C2=O)c(Br)cc1O)c1cnc(N)nc1 (centres unmarked) [Ex122],≥ 6.30
12,CN1C(=O)S/C(=C\c2cc(O/C=C/c3cnc(N)nc3)c(O)c(F)c2Br)C1=O [ExB2],≥ 6.30
13,CN1C(=O)S/C(=C\c2cc(OCc3cnc(N)nc3)c(O)cc2Br)C1=O [Ex147],≥ 6.30
14,CN1C(=O)S/C(=C\c2cc(OC(F)(F)F)c(O)cc2Br)C1=O [Ex57],5.00 to 6.30
15,CC(Oc1cc(/C=C2\SC(=O)N(C)C2=O)c(Br)c(F)c1O)c1cnc(N)nc1C(F)(F)F (centres unmarked) [ExA7],≥ 6.30
16,COCCNc1ncc(COc2cc(/C=C3\SC(=O)N(C)C3=O)c(Br)c(F)c2O)cn1 [Ex153],≥ 6.30
17,O=C1/C(=C/c2cc(OC(F)(F)F)c(O)cc2Br)Sc2ncccc21 [Ex70],5.00 to 6.30
18,CN1C(=O)S/C(=C\c2cc(OCc3cnc(NCc4ccccn4)nc3)c(O)cc2Br)C1=O [Ex155],≥ 6.30
19,CNc1ncc(COc2cc(/C=C3\Sc4ncccc4C3=O)c(Br)cc2O)cn1 [Ex195],≥ 6.30
20,O=C1/C(=C/c2cc(OCc3cnc(NCc4cccnc4)nc3)c(O)c(F)c2Br)Sc2ncccc21 [ExA3],≥ 6.30
21,CN1C(=O)S/C(=C\c2cc(OCc3ncc(N)cn3)c(O)cc2Br)C1=O [Ex139],5.00 to 6.30
22,O=C1/C(=C/c2cc(OCc3cnc(NCc4ccncc4)nc3)c(O)cc2Br)Sc2ncccc21 [Ex200],≥ 6.30
23,CN1C(=O)S/C(=C\c2cc(OCc3cn(-c4ccncc4)nn3)c(O)cc2Br)C1=O [Ex233],≤ 5.00
24,C[S+]([O-])c1ncc(COc2cc(/C=C3\Sc4ncccc4C3=O)c(Br)c(F)c2O)cn1 (centres unmarked) [ExA15],5.00 to 6.30
25,COc1cc(/C=C2\SC(=O)N(C)C2=O)c(Br)cc1NS(=O)(=O)c1ccccn1 [Ex21],≤ 5.00
